Where two headings read alike, the source gives them in different places.
Experiments:
Assay in all cases: SelectScreen kinase specificity survey
Assay type in all cases: biochemical
MARK2 = biological target: T1, MARK2 (Homo sapiens, UniProt Q7KZI7); settings: estimated, abridged dose response curve, read-out: Kinase inhibitory activity EC50
T1 construct: purchased Invitrogen, Inc. (SelectScreen platform)
Method in brief: (§1)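 Dose-response: 5 graded inhibitor additions per kinase, with ATP at 100 micromolar and detection by an optical reporter on a kinase-unique substrate. The sigmoid saturation fit has four parameters (Hill); EC50 is an estimate.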

STK4 (MST1) = biological target: T2, STK4 (MST1) (Homo sapiens, UniProt Q13043); settings: estimated, abridged dose response curve, read-out: Kinase inhibitory activity EC50
T2 construct: purchased Invitrogen (SelectScreen platform)
Method in brief: as §1

MAPKAPK3 = biological target: T3, MAPKAPK3 (Homo sapiens, UniProt Q16644); settings: estimated, abridged dose response curve, read-out: Kinase inhibitory activity EC50
T3 construct: purchased Invitrogen, Inc. (SelectScreen platform)
Method in brief: as §1

PLK1 = biological target: T4, PLK1 (Homo sapiens, UniProt P53350); settings: estimated, abridged dose response curve, read-out: Kinase inhibitory activity EC50
T4 construct: purchased Invitrogen, Inc. (SelectScreen service)
Method in brief: as §1

PDGFRA T674I = biological target: T5, PDGFRA T674I (Homo sapiens, UniProt P16234, T674I); settings: estimated, abridged dose response curve, read-out: Kinase inhibitory activity EC50
T5 construct: purchased Invitrogen (SelectScreen platform)
Method in brief: as §1

MAP4K2 (GCK) = biological target: T6, MAP4K2 (GCK) (Homo sapiens, UniProt Q12851); settings: estimated, abridged dose response curve, read-out: Kinase inhibitory activity EC50
T6 construct: purchased Invitrogen, Inc. (SelectScreen service)
Method in brief: as §1

PHKG2 = biological target: T7, PHKG2 (Homo sapiens, UniProt P15735); settings: estimated, abridged dose response curve, read-out: Kinase inhibitory activity EC50
T7 construct: purchased Invitrogen, Inc. (SelectScreen platform)
Method in brief: as §1

CHEK1 (CHK1) = biological target: T8, CHEK1 (CHK1) (Homo sapiens, UniProt O14757); settings: estimated, abridged dose response curve, read-out: Kinase inhibitory activity EC50
T8 construct: purchased Invitrogen, Inc. (SelectScreen platform)
Method in brief: as §1

SRPK1 = biological target: T9, SRPK1 (Homo sapiens, UniProt Q96SB4); settings: estimated, abridged dose response curve, read-out: Kinase inhibitory activity EC50
T9 construct: purchased Invitrogen, Inc. (SelectScreen service)
Method in brief: as §1

PRKCN (PKD3, PRKD3) = biological target: T10, PRKCN (PKD3, PRKD3) (Homo sapiens, UniProt O94806); settings: estimated, abridged dose response curve, read-out: Kinase inhibitory activity EC50
T10 construct: purchased Invitrogen, Inc. (SelectScreen platform)
Method in brief: as §1

SGK2 = biological target: T11, SGK2 (Homo sapiens, UniProt Q9HBY8); settings: estimated, abridged dose response curve, read-out: Kinase inhibitory activity EC50
T11 construct: purchased Invitrogen, Inc. (SelectScreen platform)
Method in brief: as §1

JAK2 = biological target: T12, JAK2 (Homo sapiens, UniProt O60674); settings: estimated, abridged dose response curve, read-out: Kinase inhibitory activity EC50
T12 construct: purchased Invitrogen (SelectScreen platform)
Method in brief: as §1

PRKCA (PKC alpha) = biological target: T13, PRKCA (PKC alpha) (Homo sapiens, UniProt P17252); settings: estimated, abridged dose response curve, read-out: Kinase inhibitory activity EC50
T13 construct: purchased Invitrogen (SelectScreen platform)
Method in brief: as §1

KIT = biological target: T14, KIT (Homo sapiens, UniProt P10721); settings: estimated, abridged dose response curve, read-out: Kinase inhibitory activity EC50
T14 construct: purchased Invitrogen (SelectScreen platform)
Method in brief: as §1

BRAF V599E = biological target: T15, BRAF V599E (Homo sapiens, UniProt P15056, V600E); settings: estimated, abridged dose response curve, read-out: Kinase inhibitory activity EC50
T15 construct: purchased Invitrogen, Inc. (SelectScreen platform)
Method in brief: as §1

KDR (VEGFR2) = biological target: T16, KDR (VEGFR2) (Homo sapiens, UniProt P35968); settings: estimated, abridged dose response curve, read-out: Kinase inhibitory activity EC50
T16 construct: purchased Invitrogen, Inc. (SelectScreen platform)
Method in brief: as §1

RPS6KA5 (MSK1) = biological target: T17, RPS6KA5 (MSK1) (Homo sapiens, UniProt O75582); settings: estimated, abridged dose response curve, read-out: Kinase inhibitory activity EC50
T17 construct: purchased Invitrogen, Inc. (SelectScreen platform)
Method in brief: as §1

GRK4 = biological target: T18, GRK4 (Homo sapiens, UniProt P32298)
T18 construct: purchased Invitrogen (SelectScreen platform)
Method in brief: as §1

CSNK2A2 (CK2 alpha 2) = biological target: T19, CSNK2A2 (CK2 alpha 2) (Homo sapiens, UniProt P19784); settings: estimated, abridged dose response curve, read-out: Kinase inhibitory activity EC50
T19 construct: purchased Invitrogen, Inc. (SelectScreen service)
Method in brief: as §1

CDK2/cyclin A = biological target: T20, CDK2/cyclin A (Homo sapiens, UniProt P24941); settings: estimated, abridged dose response curve, read-out: Kinase inhibitory activity EC50
T20 construct: purchased Invitrogen (SelectScreen platform)
Method in brief: as §1

TEK (Tie2) = biological target: T21, TEK (Tie2) (Homo sapiens, UniProt Q02763); settings: estimated, abridged dose response curve, read-out: Kinase inhibitory activity EC50
T21 construct: purchased Invitrogen (SelectScreen)
Method in brief: as §1

BLK = biological target: T22, BLK (Homo sapiens, UniProt P51451); settings: estimated, abridged dose response curve, read-out: Kinase inhibitory activity EC50
T22 construct: purchased Invitrogen (SelectScreen)
Method in brief: as §1

AKT1 (PKB alpha) = biological target: T23, AKT1 (PKB alpha) (Homo sapiens, UniProt P31749); settings: estimated, abridged dose response curve, read-out: Kinase inhibitory activity EC50
T23 construct: purchased Invitrogen (SelectScreen platform)
Method in brief: as §1

JAK2 JH1 JH2 V617F = biological target: T24, JAK2 JH1 JH2 V617F (Homo sapiens, UniProt O60674, V617F); settings: estimated, abridged dose response curve, read-out: Kinase inhibitory activity EC50
T24 construct: JAK2 JH1 JH2 V617F; purchased Invitrogen (SelectScreen platform)
Method in brief: as §1

PLK2 = biological target: T25, PLK2 (Homo sapiens, UniProt Q9NYY3); settings: estimated, abridged dose response curve, read-out: Kinase inhibitory activity EC50
T25 construct: purchased Invitrogen, Inc. (SelectScreen service)
Method in brief: as §1

RET Y791F = biological target: T26, RET Y791F (Homo sapiens, UniProt P07949, Y791F); settings: estimated, abridged dose response curve, read-out: Kinase inhibitory activity EC50
T26 construct: purchased Invitrogen (SelectScreen)
Method in brief: as §1

STK3 (MST2) = biological target: T27, STK3 (MST2) (Homo sapiens, UniProt Q13188); settings: estimated, abridged dose response curve, read-out: Kinase inhibitory activity EC50
T27 construct: purchased Invitrogen (SelectScreen platform)
Method in brief: as §1

T16 sequence (P35968 20-1356): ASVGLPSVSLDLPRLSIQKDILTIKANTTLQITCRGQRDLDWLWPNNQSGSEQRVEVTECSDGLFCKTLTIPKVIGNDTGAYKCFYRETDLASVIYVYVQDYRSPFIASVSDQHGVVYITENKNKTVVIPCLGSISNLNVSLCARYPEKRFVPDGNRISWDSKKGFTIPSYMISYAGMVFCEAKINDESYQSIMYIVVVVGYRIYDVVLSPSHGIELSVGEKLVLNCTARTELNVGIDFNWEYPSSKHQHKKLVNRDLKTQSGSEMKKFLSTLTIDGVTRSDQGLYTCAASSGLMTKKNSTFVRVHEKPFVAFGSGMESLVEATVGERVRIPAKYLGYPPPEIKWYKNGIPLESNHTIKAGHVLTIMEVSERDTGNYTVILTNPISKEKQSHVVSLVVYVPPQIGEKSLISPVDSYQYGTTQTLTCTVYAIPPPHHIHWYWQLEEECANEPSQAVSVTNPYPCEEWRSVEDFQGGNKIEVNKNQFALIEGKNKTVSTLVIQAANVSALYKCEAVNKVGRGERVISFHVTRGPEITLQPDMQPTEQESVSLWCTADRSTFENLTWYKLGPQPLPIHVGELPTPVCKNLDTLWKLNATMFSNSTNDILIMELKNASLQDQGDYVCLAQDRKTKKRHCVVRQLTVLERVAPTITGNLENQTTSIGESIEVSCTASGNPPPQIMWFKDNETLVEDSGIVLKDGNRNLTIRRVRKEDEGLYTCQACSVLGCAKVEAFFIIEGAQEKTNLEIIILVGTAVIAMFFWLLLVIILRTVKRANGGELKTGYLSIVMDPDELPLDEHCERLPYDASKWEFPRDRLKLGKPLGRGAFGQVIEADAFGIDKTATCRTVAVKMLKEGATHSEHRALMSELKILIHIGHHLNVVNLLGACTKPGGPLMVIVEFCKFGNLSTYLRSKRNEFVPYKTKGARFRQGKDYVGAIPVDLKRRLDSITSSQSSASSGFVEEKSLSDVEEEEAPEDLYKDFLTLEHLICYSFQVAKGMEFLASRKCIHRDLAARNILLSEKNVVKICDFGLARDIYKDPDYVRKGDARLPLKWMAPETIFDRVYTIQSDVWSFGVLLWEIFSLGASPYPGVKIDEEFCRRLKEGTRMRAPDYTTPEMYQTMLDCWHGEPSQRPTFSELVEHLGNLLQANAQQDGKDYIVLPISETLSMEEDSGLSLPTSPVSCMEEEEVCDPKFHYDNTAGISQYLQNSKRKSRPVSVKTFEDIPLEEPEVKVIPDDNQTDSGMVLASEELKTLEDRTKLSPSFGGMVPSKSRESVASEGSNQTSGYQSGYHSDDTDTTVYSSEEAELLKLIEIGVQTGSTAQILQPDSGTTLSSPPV
T10 sequence (O94806 whole entry): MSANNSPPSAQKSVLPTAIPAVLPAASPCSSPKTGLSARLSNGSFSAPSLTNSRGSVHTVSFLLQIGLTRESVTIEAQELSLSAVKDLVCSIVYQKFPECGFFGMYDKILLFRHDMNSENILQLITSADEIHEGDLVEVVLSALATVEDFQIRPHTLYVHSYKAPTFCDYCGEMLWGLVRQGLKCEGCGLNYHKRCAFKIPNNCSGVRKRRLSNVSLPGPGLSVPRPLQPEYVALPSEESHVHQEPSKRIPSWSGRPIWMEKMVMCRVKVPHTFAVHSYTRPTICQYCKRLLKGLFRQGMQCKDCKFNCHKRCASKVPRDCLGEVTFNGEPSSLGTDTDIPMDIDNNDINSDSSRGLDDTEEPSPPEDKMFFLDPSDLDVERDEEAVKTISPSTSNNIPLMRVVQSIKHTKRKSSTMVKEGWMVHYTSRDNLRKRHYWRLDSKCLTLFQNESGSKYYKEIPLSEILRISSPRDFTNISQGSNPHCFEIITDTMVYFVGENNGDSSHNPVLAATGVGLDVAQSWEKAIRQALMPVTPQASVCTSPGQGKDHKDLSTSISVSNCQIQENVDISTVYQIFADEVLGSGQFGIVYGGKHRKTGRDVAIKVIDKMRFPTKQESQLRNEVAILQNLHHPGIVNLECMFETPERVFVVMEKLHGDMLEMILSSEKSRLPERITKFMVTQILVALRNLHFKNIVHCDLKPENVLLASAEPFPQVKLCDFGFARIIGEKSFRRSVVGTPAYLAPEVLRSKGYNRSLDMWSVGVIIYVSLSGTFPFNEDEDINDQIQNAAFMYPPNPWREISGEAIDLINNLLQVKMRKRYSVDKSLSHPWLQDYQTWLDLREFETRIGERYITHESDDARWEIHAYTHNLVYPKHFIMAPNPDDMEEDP
T23 sequence (P31749 whole entry): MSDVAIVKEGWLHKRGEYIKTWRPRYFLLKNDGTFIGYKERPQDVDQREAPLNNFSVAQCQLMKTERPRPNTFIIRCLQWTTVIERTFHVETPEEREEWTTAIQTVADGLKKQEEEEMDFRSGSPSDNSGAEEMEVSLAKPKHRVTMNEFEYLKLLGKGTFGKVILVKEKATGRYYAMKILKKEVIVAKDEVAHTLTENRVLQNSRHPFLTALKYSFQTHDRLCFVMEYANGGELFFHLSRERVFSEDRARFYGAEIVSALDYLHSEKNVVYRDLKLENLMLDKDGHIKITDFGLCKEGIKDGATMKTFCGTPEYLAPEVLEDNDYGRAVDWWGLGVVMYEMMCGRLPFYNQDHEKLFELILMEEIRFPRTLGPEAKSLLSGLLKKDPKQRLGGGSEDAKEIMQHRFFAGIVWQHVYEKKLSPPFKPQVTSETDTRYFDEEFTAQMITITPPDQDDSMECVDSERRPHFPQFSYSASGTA
T27 sequence (Q13188 whole entry): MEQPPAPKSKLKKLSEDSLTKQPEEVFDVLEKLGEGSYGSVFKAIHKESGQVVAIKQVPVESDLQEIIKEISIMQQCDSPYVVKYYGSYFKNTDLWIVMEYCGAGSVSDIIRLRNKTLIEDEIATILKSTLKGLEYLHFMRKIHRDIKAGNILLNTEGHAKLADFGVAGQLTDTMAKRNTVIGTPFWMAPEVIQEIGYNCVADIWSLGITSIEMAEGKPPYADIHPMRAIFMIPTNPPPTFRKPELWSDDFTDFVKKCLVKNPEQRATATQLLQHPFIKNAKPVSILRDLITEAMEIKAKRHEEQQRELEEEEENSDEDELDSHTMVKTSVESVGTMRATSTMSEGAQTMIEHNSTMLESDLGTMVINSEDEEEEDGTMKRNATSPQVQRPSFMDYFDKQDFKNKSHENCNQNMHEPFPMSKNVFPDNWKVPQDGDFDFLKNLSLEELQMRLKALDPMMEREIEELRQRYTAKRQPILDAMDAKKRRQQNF
T1 sequence (Q7KZI7 whole entry): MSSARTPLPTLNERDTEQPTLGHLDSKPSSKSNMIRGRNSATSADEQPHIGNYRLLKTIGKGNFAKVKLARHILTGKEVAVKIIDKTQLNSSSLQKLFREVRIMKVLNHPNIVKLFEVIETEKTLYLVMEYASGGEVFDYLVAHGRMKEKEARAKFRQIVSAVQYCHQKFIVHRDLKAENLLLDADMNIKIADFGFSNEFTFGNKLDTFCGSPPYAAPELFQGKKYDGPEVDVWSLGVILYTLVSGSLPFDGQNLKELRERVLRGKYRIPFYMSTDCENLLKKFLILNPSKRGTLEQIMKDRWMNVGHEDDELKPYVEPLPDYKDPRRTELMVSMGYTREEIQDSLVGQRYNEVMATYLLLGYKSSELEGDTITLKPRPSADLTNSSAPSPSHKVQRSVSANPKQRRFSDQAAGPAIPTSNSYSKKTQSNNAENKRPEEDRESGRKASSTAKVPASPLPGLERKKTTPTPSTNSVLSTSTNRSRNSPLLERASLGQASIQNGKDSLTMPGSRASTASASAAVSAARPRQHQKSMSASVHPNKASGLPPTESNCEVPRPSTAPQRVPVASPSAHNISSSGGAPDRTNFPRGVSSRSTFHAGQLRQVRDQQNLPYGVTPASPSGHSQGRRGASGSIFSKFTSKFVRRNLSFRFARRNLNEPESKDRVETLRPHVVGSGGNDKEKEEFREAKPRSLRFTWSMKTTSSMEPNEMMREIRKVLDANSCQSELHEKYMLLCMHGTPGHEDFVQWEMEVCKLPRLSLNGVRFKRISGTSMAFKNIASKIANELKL
T4 sequence (P53350 whole entry): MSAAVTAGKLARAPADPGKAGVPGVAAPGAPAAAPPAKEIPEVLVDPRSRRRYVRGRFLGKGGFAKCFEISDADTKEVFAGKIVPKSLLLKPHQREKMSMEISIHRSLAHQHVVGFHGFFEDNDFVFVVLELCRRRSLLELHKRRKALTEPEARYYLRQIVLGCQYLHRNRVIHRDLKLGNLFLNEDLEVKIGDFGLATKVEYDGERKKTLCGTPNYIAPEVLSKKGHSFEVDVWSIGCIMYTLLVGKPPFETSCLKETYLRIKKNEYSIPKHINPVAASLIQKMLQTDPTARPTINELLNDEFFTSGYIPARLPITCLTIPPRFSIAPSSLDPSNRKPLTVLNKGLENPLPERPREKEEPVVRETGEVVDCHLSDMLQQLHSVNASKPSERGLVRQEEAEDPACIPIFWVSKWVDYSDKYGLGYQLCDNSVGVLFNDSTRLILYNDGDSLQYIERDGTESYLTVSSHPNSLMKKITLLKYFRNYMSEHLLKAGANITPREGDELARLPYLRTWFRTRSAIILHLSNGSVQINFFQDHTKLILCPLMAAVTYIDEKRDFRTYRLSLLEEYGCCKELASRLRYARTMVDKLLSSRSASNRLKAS
T11 sequence (Q9HBY8 whole entry): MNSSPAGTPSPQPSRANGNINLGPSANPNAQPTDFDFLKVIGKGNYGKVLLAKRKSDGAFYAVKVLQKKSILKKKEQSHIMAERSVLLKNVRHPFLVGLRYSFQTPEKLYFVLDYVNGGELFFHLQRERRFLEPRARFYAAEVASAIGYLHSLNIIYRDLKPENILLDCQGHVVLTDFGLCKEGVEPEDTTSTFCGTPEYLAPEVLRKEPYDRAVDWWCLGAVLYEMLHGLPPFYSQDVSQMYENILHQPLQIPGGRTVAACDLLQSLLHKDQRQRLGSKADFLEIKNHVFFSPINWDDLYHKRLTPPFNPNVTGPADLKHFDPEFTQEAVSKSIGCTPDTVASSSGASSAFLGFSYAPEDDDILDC

| SMILES | EC50 (MARK2) | EC50 (STK4 (MST1)) | EC50 (MAPKAPK3) | EC50 (PLK1) | EC50 (PDGFRA T674I) | EC50 (MAP4K2 (GCK)) | EC50 (PHKG2) | EC50 (CHEK1 (CHK1)) | EC50 (SRPK1) | EC50 (PRKCN (PKD3, PRKD3)) | EC50 (SGK2) | EC50 (JAK2) | EC50 (PRKCA (PKC alpha)) | EC50 (KIT) | EC50 (BRAF V599E) | EC50 (KDR (VEGFR2)) | EC50 (RPS6KA5 (MSK1)) | EC50 (CSNK2A2 (CK2 alpha 2)) | EC50 (CDK2/cyclin A) | EC50 (TEK (Tie2)) | also measured |
| --- | --- | --- | --- | --- | --- | --- | --- | --- | --- | --- | --- | --- | --- | --- | --- | --- | --- | --- | --- | --- | --- |
| CN(C)CCCNc1ccc2ncn3c4ccc5[nH]ncc5c4c(=O)c1c23 [Compound (IV)] | 3.49 µM | 2.17 µM | > 5 µM | > 5 µM | > 5 µM | > 5 µM | 3.72 µM | > 5 µM | > 5 µM | 0.302 µM | > 5 µM | > 5 µM | > 5 µM | 1.1 µM | 1.17 µM | 0.83 µM | > 5 µM | > 5 µM | 0.822 µM | > 5 µM | EC50 (GRK4; GRK4, estimated, abridged dose response curve, read-out: Kinase inhibitory activity EC50): > 5 µM; EC50 (BLK): 0.481 µM; EC50 (AKT1 (PKB alpha)): > 5 µM; EC50 (JAK2 JH1 JH2 V617F): > 5 µM; EC50 (PLK2): > 5 µM; EC50 (RET Y791F): 0.627 µM; EC50 (STK3 (MST2)): > 5 µM |
| CCN(CC)CCNc1ccc2ncn3c4ccc(O)cc4c(=O)c1c23 [Symadex, 5-(2-(diethylamino)ethylamino)-8-hydroxy-6H-imidazo[4,5,1-de]acridin-6-one, reference compound] | 2.02 µM | > 5 µM | > 5 µM | > 5 µM | > 5 µM | 4.93 µM | > 5 µM | > 5 µM | > 5 µM | 0.221 µM | > 5 µM | > 5 µM | > 5 µM | 2.25 µM | 3.4 µM | 1.6 µM | > 5 µM | 4.8 µM | > 5 µM | > 5 µM | EC50 (GRK4): > 5 µM; EC50 (BLK): 0.22 µM; EC50 (AKT1 (PKB alpha)): > 5 µM; EC50 (JAK2 JH1 JH2 V617F): > 5 µM; EC50 (PLK2): > 5 µM; EC50 (RET Y791F): 1.24 µM; EC50 (STK3 (MST2)): > 5 µM |

Reference: patent publication US20100292231A1, “Indazole Compounds for Treating Inflammatory Disorders, Demyelinating Disorders and Cancers” (priority 2007, published 2010)
